For data set [1], the system named is HeLa cells. In words: Confocal imaging of subcellular localization. Format: cell-based, human. The settings on record: free fluorescein-labelled peptide without LNP, 8 hours, live cell confocal.
The nature of data set [2]: In vivo biodistribution of LNP-encapsulated PepTACs. Set-up: species or system SKH-1 hairless mice. Conditions: Cy5.5-labeled, 5 mg/kg IV, confocal imaging of liver sections.
Data set [3] can be described thus: Encapsulation efficiency of the LNPs. The class given is physicochemical. Conditions: optimized LNP formulation, ^CRPepTAC or peptide ligand alone; Figure 4B.

Regarding “IYP^OHAL-Ahx-KDVLSEKEKKLEEYKQKLARV [^CRPepTAC]”, the “uptake / subcellular localization” value in data set [1] is “no uptake or cellular association”. For the same substance, the “PepTAC signal in liver sections after 24 hours” value in data set [2] was “no signal”.

Regarding KDVLSEKEKKLEEYKQKLARV [CL], the “LNP Encapsulation Efficiency, %” value in data set [3] came out at 15%.

These data come from publication doi:10.1101/2024.03.17.584721v1 (bioRxiv, 2024).
